Like-named read-outs stand apart in the source and are kept apart here.
Key:
[1] = test system: Staphylococcus epidermidis RP62a; assay: Broth microdilution (MIC/MBC); type: cell-based; settings: human clinical isolate
[2] = test system: Salmonella typhimurium TA98

Q: What does the source list for CC(C)=CCCC(C)CC[N+](C)(C)CCCN1c2ccccc2Sc2ccccc21 (stereo not shown) [JBC 1847]?
A: MIC [1]: 0.5 µg/mL; Mean number of reverse mutated colonies ([2]; TA98, + S9, 1.5 μg/well): 11.00 ± 2.65; Mean number of reverse mutated colonies ([2]; TA98, + S9, 4 μg/well): 11.33 ± 3.79; Mean number of reverse mutated colonies ([2]; TA98, + S9, 10 μg/well): 13.67 ± 4.04; Mean number of reverse mutated colonies ([2]; TA98, + S9, 64 μg/well): 0.0; Mean number of reverse mutated colonies ([2]; TA98, −S9, 1.5 μg/well): 13.00 ± 2.00; Mean number of reverse mutated colonies ([2]; TA98, −S9, 4 μg/well): 9.00 ± 2.00; Mean number of reverse mutated colonies ([2]; TA98, −S9, 10 μg/well): 9.67 ± 3.51; Mean number of reverse mutated colonies ([2]; TA98, −S9, 25 μg/well): 0.0; Mean number of reverse mutated colonies ([2]; TA98, −S9, 64 μg/well): 0.0

Source: paper PMC7555839 (Frontiers in Microbiology, 2020)
